Source: ChEMBL document CHEMBL1147867, “Identification of antitumour activity of novel derivatives of 8-aryl-2,6,7,8-tetrahydroimidazo[2,1-c][1,2,4]triazine-3,4-dione and 8-aryl-4-imino-2,3,7,8-tetrahydroimidazo[2,1-c][1,2,4]triazin-3(6H)-one” (Bioorg Med Chem, 2007)
In brackets after ≈: the same amount, converted by molar mass.

Key:
[1] = Cytotoxicity against Vero cells at 10 ug/ml after 72 hrs; assay type: cell-based; details: chlorocebus sabaeus, read-out: Inhibition
[2] = Cytotoxicity against Vero cells at 50 ug/ml after 72 hrs; assay type: cell-based; details: chlorocebus sabaeus, read-out: Inhibition
[3] = Cytotoxicity against human LS180 cells at 10 ug/ml after 72 hrs; assay type: functional; details: LS180, 72 h
[4] = Cytotoxicity against human LS180 cells at 50 ug/ml after 72 hrs; assay type: functional; details: LS180, 72 h
HeLa [5] = assay: Cytotoxicity against human HeLa cells at 10 ug/ml after 72 hrs; assay type: functional
HeLa [6] = assay: Cytotoxicity against human HeLa cells at 50 ug/ml after 72 hrs; assay type: functional
T47D [7] = assay: Cytotoxicity against human T47D cells at 10 ug/ml after 72 hrs; assay type: functional
T47D [8] = assay: Cytotoxicity against human T47D cells at 50 ug/ml after 72 hrs; assay type: functional
Staphylococcus aureus = assay: Antibacterial activity against Staphylococcus aureus after 24 hrs by microdilution broth method; assay type: functional
[9] = system: Staphylococcus epidermidis; assay: Antibacterial activity against Staphylococcus epidermidis after 24 hrs by microdilution broth method; assay type: functional
Streptococcus pyogenes = assay: Antibacterial activity against Streptococcus pyogenes after 24 hrs by microdilution broth method; assay type: functional
Escherichia coli = assay: Antibacterial activity against Escherichia coli after 24 hrs by microdilution broth method; assay type: functional
[10] = Cell viability in HSF cells at 1 uM after 24 hrs by MTT assay; assay type: cell-based, Fibroblast; details: human, read-out: Activity
[11] = Cell viability in HSF cells at 50 uM after 24 hrs by MTT assay; assay type: cell-based, Fibroblast; details: human, read-out: Activity
[12] = Cell viability in HSF cells at 100 uM after 24 hrs by MTT assay; assay type: functional, Homo sapiens, Fibroblast
RPMI-8226 [13] = assay: Cell viability in human RPMI 8226 ECACC 87012702 cancer cells at 1 uM after 24 hrs by MTT assay; assay type: functional
A549 [14] = assay: Anticancer activity against human A549 cells at 10 ug/ml after 72 hrs; assay type: functional; details: A549, 72 h
A549 [15] = assay: Anticancer activity against human A549 cells at 50 ug/ml after 72 hrs; assay type: functional; details: A549, 72 h
[16] = Acute toxicity in mouse; assay type: organism-based; details: in vivo
RPMI-8226 [17] = assay: Cell viability in human RPMI 8226 ECACC 87012702 cancer cells at 50 uM after 24 hrs by MTT assay; assay type: functional
RPMI-8226 [18] = assay: Cell viability in human RPMI 8226 ECACC 87012702 cancer cells at 100 uM after 24 hrs by MTT assay; assay type: functional

Row | MIC (Staphylococcus aureus) | MIC [9] | MIC (Streptococcus pyogenes) | MIC (Escherichia coli) | Structure (SMILES) | cytotoxicity at 72 h, 10 ug/ml [1] | cytotoxicity at 72 h, 50 ug/ml [2] | inhibition at 10 µg/mL [3] | inhibition at 50 µg/mL [4] | inhibition at 10 µg/mL (HeLa [5]) | inhibition at 50 µg/mL (HeLa [6]) | inhibition at 10 µg/mL (T47D [7]) | inhibition at 50 µg/mL (T47D [8]) | viability at 24 h, 1 µM [10] | viability at 24 h, 50 µM [11] | Activity [12] | Activity (RPMI-8226 [13]) | inhibition at 10 µg/mL (A549 [14]) | inhibition at 50 µg/mL (A549 [15]) | Activity (RPMI-8226 [17]) | Activity (RPMI-8226 [18]) | other results
1 | – | – | – | – | N/N=C1\NCCN1c1ccccc1Cl | 0% | 0% | 7% | 0% | 2% | 0% | 22% | 27% | – | – | – | – | – | – | – | – | –
2 | 41.1 µM (≈ 7.24 µg/mL) | 41.1 µM (≈ 7.24 µg/mL) | 65.8 µM (≈ 11.6 µg/mL) | 41.1 µM (≈ 7.24 µg/mL) | N/N=C1\NCCN1c1ccccc1 | 0% | 0% | 1% | 0% | 6% | 3% | 0% | 0% | – | – | – | – | – | – | – | – | –
3 | – | – | – | – | COc1ccc(N2CCn3c2n[nH]c(=O)c3=O)cc1 | 0% | 10% | 0% | 46% | 6% | 0% | 7% | 21% | 94% | 92% | 94% | 98% | 0% | 0% | 99% | 99% | LD50 [16]: 1500 mg/kg
4 | 39.3 µM (≈ 7.48 µg/mL) | 31.4 µM (≈ 5.97 µg/mL) | 78.6 µM (≈ 15 µg/mL) | 15.7 µM (≈ 2.99 µg/mL) | Cc1ccccc1N1CCN/C1=N\N | – | – | – | – | – | – | – | – | – | – | – | – | – | – | – | – | –
5 | – | – | – | – | O=c1[nH]nc2n(c1=O)CCN2c1ccccc1 | 7% | 30% | 0% | 12% | 0% | 0% | 0% | 0% | 93% | 95% | 94% | 96% | 0% | 17% | 96% | 86% | LD50 [16]: 1400 mg/kg
6 | – | – | – | – | Cc1ccccc1N1CCn2c1n[nH]c(=O)c2=O | 0% | 0% | 0% | 0% | 0% | 0% | 0% | 0% | 104% | 110% | 108% | 101% | 24% | 29% | 121% | 133% | –
7 | – | – | – | – | Cc1cccc(N2CCn3c2n[nH]c(=O)c3=O)c1C | 18% | 18% | 0% | 0% | 0% | 0% | 21% | 22% | – | – | – | – | 0% | 0% | – | – | –
8 | – | – | – | – | O=c1[nH]nc2n(c1=O)CCN2c1ccc(Cl)c(Cl)c1 | – | – | – | – | – | – | – | – | 109% | 90% | 90% | 98% | – | – | 35% | 25% | –
9 | – | – | – | – | N=c1c(=O)[nH]nc2n1CCN2c1cccc(Cl)c1 | 0% | 0% | 0% | 1% | 6% | 2% | 3% | 31% | – | – | – | – | 36% | 50% | – | – | –
10 | 37.6 µM (≈ 7.68 µg/mL) | 18.8 µM (≈ 3.84 µg/mL) | 75.2 µM (≈ 15.4 µg/mL) | 18.8 µM (≈ 3.84 µg/mL) | Cc1cccc(N2CCN/C2=N\N)c1C | 16% | 14% | 6% | 0% | 8% | 0% | 21% | 25% | – | – | – | – | – | – | – | – | –
11 | 37.4 µM (≈ 7.71 µg/mL) | 37.4 µM (≈ 7.71 µg/mL) | 74.8 µM (≈ 15.4 µg/mL) | 29.9 µM (≈ 6.17 µg/mL) | COc1ccccc1N1CCN/C1=N\N | – | – | – | – | – | – | – | – | – | – | – | – | – | – | – | – | –
12 | – | – | – | – | N=c1c(=O)[nH]nc2n1CCN2c1ccccc1Cl | 0% | 2% | 6% | 2% | 0% | 0% | 0% | 0% | 100% | 104% | 101% | 93% | 6% | 16% | 94% | 93% | –
